Like-named read-outs stand apart in the source and are kept apart here.
How the values were obtained:
[1] = test system: HT-29 (Colorectal cancer); assay: Xenograft study; assay type: in vivo, mice; details: HT-29 xenograft, IP
Text: (§1) The Xenograft models used were HT-29, KB, PA-1, MCF-7, PANC-1, T24 and MDA-MB-231. The basic study design for the Xenograft study was as follows: • 1. Cell maintenance and cell suspension preparation • 2. Aseptic injection of tumor cell suspension in the donor animal • 3. Randomization of animals in respective groups • 4. IP dosing of test items in predetermined doses • 5. IP administration of standard • 6. After completion of dosing period. • 7. The Tumor volume recording weekly twice while body weight and clinical signs daily.

Glioma (C6) = assay: cytotoxicity in Brain Tumor Cell lines by MTT assay; assay type: cell-based, Rat; details: 0.05 μM-50 μM, 72 h
Procedure: (§2) The SEQ ID NO. […] Untreated cells were used as control. […] Cells were incubated for 3 h at 37° C.

Notch-1 = assay: biomarker levels in IOMM-Lee by ELISA; assay type: cell-based, Human; details: 0.1 μM
Text: (§3) Effect of SEQ ID No 2 on the expression of following 7 biomarkers were estimated in Human Meningioma cell line (IOMM-Lee) using multiplex analysis: TNF-alpha, VEGF, VEGFR2, HGF, HGFR/c-MET, PDGF-BB, and Contactin-1. Levels of another marker, Notch-1 were also estimated by ELISA in the same cell line. These 8 biomarkers play very crucial role in the pathogenesis and progression of Brain Tumor. […] Supernatants were collected and the levels of these 8 markers were investigated.

Glioblastoma (LN-18) = assay: cytotoxicity in Brain Tumor Cell lines by MTT assay; assay type: cell-based, Human; details: 0.05 μM-50 μM, 72 h
Procedure: as §2

Neuroblastoma (SH-SY5Y) = assay: as above; assay type: cell-based, Human; details: 0.05 μM-50 μM, 72 h
Procedure: as §2

VEGFR2 = assay: biomarker levels in IOMM-Lee by multiplex analysis; assay type: cell-based, Human
Text: as §3

PDGF-BB = assay: biomarker levels in IOMM-Lee by multiplex analysis; assay type: cell-based, Human
Text: as §3

HGF = assay: biomarker levels in IOMM-Lee by multiplex analysis; assay type: cell-based, Human
Text: as §3

TNF-α = assay: biomarker levels in IOMM-Lee by multiplex analysis; assay type: cell-based, Human
Text: as §3

HGFR/c-MET = assay: biomarker levels in IOMM-Lee by multiplex analysis; assay type: cell-based, Human
Text: as §3

Contactin-1 = assay: biomarker levels in IOMM-Lee by multiplex analysis; assay type: cell-based, Human
Text: as §3

VEGF = assay: biomarker levels in IOMM-Lee by multiplex analysis; assay type: cell-based, Human; details: 0.1 μM
Text: as §3

Meningioma (IOMM-Lee) = assay: cytotoxicity in Brain Tumor Cell lines by MTT assay; details: 0.05 μM-50 μM, 72 h
Astrocytoma (U87MG) = assay: as above; details: 0.05 μM-50 μM, 72 h
[2] = test system: PANC-1 (Pancreas/duct epithelioid carcinoma); assay: Xenograft study; assay type: in vivo, mice; details: PANC-1 xenograft, IP
Text: as §1

[3] = test system: EA.hy926 (Human endothelial cells); assay: Cell migration by scratch assay in endothelial cells; assay type: cell-based; details: Homo sapiens, read-out: Inhibition of migration with respect to untreated; for inhibition at 0.0001 µM: 0.1 nM; for inhibition at 0.001 µM: 1 nM; for inhibition at 0.0025 µM: 2.5 nM; for inhibition at 0.005 µM: 5 nM; for inhibition at 0.01 µM: 10 nM
Procedure: EA.hy296 cells were counted using hemocytometer and plated in 6-well plates at the density of 0.5×10^6 cells/well. The cells were incubated overnight under growth conditions as described above so as to allow cell recovery and exponential growth. Following overnight incubation, a small linear scratch (representative wound) was created in the confluent monolayer (middle of the well) by gently scraping with sterile 200 μl micropipette tip. Photomicrographs of the scratch were taken at 0 h (Initial time point). Cells were rinsed with serum free DMEM and grouped for treatment in two different serum conditions:
• Baseline control: Cells+DMEM • Positive/Validation control: Baseline control+Positive Control. Test: Baseline control+Test Item
• Baseline control: Cells+DMEM+1% FBS • Positive/Validation control: Baseline control+Positive Control. • Test: Baseline control+Test item
Photomicrographs of the scratch were taken at 24 h-72 h time points. The photomicrographs obtained in the above step were analyzed for quantitative assessment of area of wound closure using ImageJ tool software. Percentage migration with respect to untreated cells at different time points was calculated.

[4] = test system: EA.hy926 (Human endothelial cells); assay: endothelial cell proliferation by MTT assay; assay type: cell-based; details: 72 h
Procedure: The cell line used for the study was EA.hy926 (Human endothelial cells) which was procured from National Centre for Cell Science, Pune (India). The cell line was maintained in DMEM+10% FBS (heat inactivated) at 37° C. with 5% CO2, and 95% humidity. […] Untreated cells with complete medium (10% FBS) served as complete medium control, cells with sera free medium served as SFM control and the cells treated with Paclitaxel served as positive control.
The percentage cytotoxicity corresponding to each treatment was calculated.

[5] = test system: neovascularization of Matrigel plug containing FGF-2 (bFGF); assay: Matrigel plug assay (in-vivo anti-angiogenesis); parameters: species or system C57BL/6 mice; details: G3, 55 mg/Kg, qdx15
Procedure: Healthy C57BL/6 mice were selected and grouped on the basis of body weight into […] (G1-G4, n=7). Each mouse of group G2-G4 was subcutaneously injected at right flank region with 500 μl of matrigel containing 500 ng of FGF-2 (bFGF). Whereas mice of G1 group were subcutaneously injected at right flank region with 500 μl of matrigel only. In this assay, angiogenesis-inducing compounds such as bFGF was introduced into cold liquid Matrigel which, after subcutaneous injection, solidified and permits penetration by host cells and the formation of new blood vessels (neovascularization).
Required amount of test items were taken and added to an appropriate volume of Tris Buffered Saline (TBS) to achieve the required concentrations. The dose volume given to animal was 10 mL/Kg.
Daily cage-side observations were carried out to detect any clinical signs or mortality and recorded throughout the experiment period.

O=c1[nH]cc(F)c(=O)[nH]1 [5-Fluorourasil, reference compound]
Maximum Tumor Growth Inhibition (%) [1]: 62.94% | Tumor Volume (mm^3) (Mean ± SEM) [1]: 1362 ± 155 mm^3

CO[C@H]1C[C@@H]2CC[C@@H](C)[C@@](O)(O2)C(=O)C(=O)N2CCCC[C@H]2C(=O)O[C@H]([C@H](C)C[C@@H]2CC[C@@H](OCCO)[C@H](OC)C2)CC(=O)[C@H](C)/C=C(\C)[C@@H](O)[C@@H](OC)C(=O)[C@H](C)C[C@H](C)/C=C/C=C/C=C/1C [Everolimus]
% of cytotoxicity (Glioma (C6)): 50.3%-97.2% | Percentage inhibition on levels of Notch-1 (Notch-1): 75.9% | % of cytotoxicity (Glioblastoma (LN-18)): 3.5%-90.7% | % of cytotoxicity (Neuroblastoma (SH-SY5Y)): 29.7%-70.1% | Percentage inhibition on levels of VEGFR2 (VEGFR2; 0.1 μM): 27.6% | Percentage inhibition on levels of VEGFR2 (VEGFR2; 5 μM): 100% | Percentage inhibition on levels of PDGF-BB (PDGF-BB; 0.1 μM): 1.5% | Percentage inhibition on levels of PDGF-BB (PDGF-BB; 5 μM): 67.9% | Percentage inhibition on levels of HGF (HGF; 0.1 μM): 59.2% | Percentage inhibition on levels of HGF (HGF; 5 μM): 80.8% | Percentage inhibition on levels of TNF-α (TNF-α; 0.1 μM): 42.3% | Percentage inhibition on levels of TNF-α (TNF-α; 5 μM): 100% | Percentage inhibition on levels of HGFR/c-MET (HGFR/c-MET; 0.1 μM): 21.2% | Percentage inhibition on levels of HGFR/c-MET (HGFR/c-MET; 5 μM): 41% | Percentage inhibition on levels of Contactin-1 (Contactin-1; 0.1 μM): 14.9% | Percentage inhibition on levels of Contactin-1 (Contactin-1; 5 μM): 31.3% | Percentage inhibition on levels of VEGF (VEGF): 45.8% | % of cytotoxicity (Meningioma (IOMM-Lee)): 44.7%-97.4% | % of cytotoxicity (Astrocytoma (U87MG)): 43.6%-88.0%

Nc1ccn([C@@H]2O[C@H](CO)[C@@H](O)C2(F)F)c(=O)n1 [Gemcitabine, reference compound]
Maximum Tumor Growth Inhibition (%) [2]: 61.49% | Tumor Volume (mm^3) (Mean ± SEM) [2]: 503.93 ± 151.27 mm^3

CC(=O)O[C@H]1C(=O)[C@@]2(C)[C@H]([C@H](OC(=O)c3ccccc3)[C@]3(O)C[C@H](OC(=O)[C@H](O)[C@@H](NC(=O)c4ccccc4)c4ccccc4)C(C)=C1C3(C)C)[C@]1(OC(C)=O)CO[C@@H]1C[C@@H]2O [Paclitaxel, reference compound]
inhibition at 0.0001 µM ([3]; EA.hy 926, 24 h, 24 h, 1% FBS): -1.1% | inhibition at 0.0001 µM ([3]; EA.hy 926, 24 h, 24 h, SFM): 26.5% | inhibition at 0.001 µM ([3]; EA.hy 926, 24 h, 24 h, 1% FBS): 7.8% | inhibition at 0.001 µM ([3]; EA.hy 926, 24 h, 24 h, SFM): 28.5% | inhibition at 0.0025 µM ([3]; EA.hy 926, 24 h, 24 h, 1% FBS): 25.9% | inhibition at 0.0025 µM ([3]; EA.hy 926, 24 h, 24 h, SFM): 51.4% | inhibition at 0.005 µM ([3]; EA.hy 926, 24 h, 24 h, 1% FBS): 25% | inhibition at 0.005 µM ([3]; EA.hy 926, 24 h, 24 h, SFM): 43.7% | inhibition at 0.01 µM ([3]; EA.hy 926, 24 h, 24 h, 1% FBS): 44.4% | inhibition at 0.01 µM ([3]; EA.hy 926, 24 h, 24 h, SFM): 58.9% | inhibition at 0.0001 µM ([3]; EA.hy 926, 48 h, 48 h, 1% FBS): -0.2% | inhibition at 0.0001 µM ([3]; EA.hy 926, 48 h, 48 h, SFM): 21.1% | inhibition at 0.001 µM ([3]; EA.hy 926, 48 h, 48 h, 1% FBS): 2.1% | inhibition at 0.001 µM ([3]; EA.hy 926, 48 h, 48 h, SFM): 36.8% | inhibition at 0.0025 µM ([3]; EA.hy 926, 48 h, 48 h, 1% FBS): 18.3% | inhibition at 0.0025 µM ([3]; EA.hy 926, 48 h, 48 h, SFM): 51.6% | inhibition at 0.005 µM ([3]; EA.hy 926, 48 h, 48 h, 1% FBS): 10.6% | inhibition at 0.005 µM ([3]; EA.hy 926, 48 h, 48 h, SFM): 45.2% | inhibition at 0.01 µM ([3]; EA.hy 926, 48 h, 48 h, 1% FBS): 37.2% | inhibition at 0.01 µM ([3]; EA.hy 926, 48 h, 48 h, SFM): 60.2% | inhibition at 0.0001 µM ([3]; EA.hy 926, 72 h, 72 h, SFM): 7.8% | inhibition at 0.001 µM ([3]; EA.hy 926, 72 h, 72 h, SFM): 32.7% | inhibition at 0.0025 µM ([3]; EA.hy 926, 72 h, 72 h, SFM): 42.8% | inhibition at 0.005 µM ([3]; EA.hy 926, 72 h, 72 h, SFM): 47.3% | inhibition at 0.01 µM ([3]; EA.hy 926, 72 h, 72 h, SFM): 56.3% | Mean (MTT absorbance) ([4]; 1 nM): 0.93 | Mean (MTT absorbance) ([4]; 10 nM): 0.89 | Mean (MTT absorbance) ([4]; 100 nM): 0.57 | Mean (MTT absorbance) ([4]; 1000 nM): 0.45 | inhibition at 0.001 µM ([4]; Homo sapiens, EA.hy 926, 1 nM, read-out: % inhibition of FBS stimulated cell growth): 42% | inhibition at 0.01 µM ([4]; Homo sapiens, EA.hy 926, 10 nM, read-out: % inhibition of FBS stimulated cell growth): 44.7% | inhibition at 0.1 µM ([4]; Homo sapiens, EA.hy 926, 100 nM, read-out: % inhibition of FBS stimulated cell growth): 64.5% | inhibition at 1 µM ([4]; Homo sapiens, EA.hy 926, 1000 nM, read-out: % inhibition of FBS stimulated cell growth): 71.7%

CCN(CC)CCNC(=O)c1c(C)[nH]c(/C=C2\C(=O)Nc3ccc(F)cc32)c1C [Sunitinib, reference compound]
Hemoglobin Content in the Matrigel Plug Section, Mean ([5]; p.o.): 21.92 | reduction in hemoglobin content in homogenate of Matrigel plug compared to positive control ([5]; p.o.): 59.2% | Histological Observation, Fat cell Infiltration, Mean [5]: 0.71 | Histological Observation, Fibroblast Infiltration, Mean [5]: 2.43 | Histological Observation, MN cell Infiltration, Mean [5]: 1.57 | Histological Observation, Neovascularization, Mean [5]: 1.14
